Data on 23 compounds can be found in patent US20240140957A1, “BRIDGED COMPOUNDS AS KRAS G12D INHIBITOR AND DEGRADER AND THE USE THEREOF” (BeiGene Switzerland GmbH, priority 2021, published 2024).

The test deals with GDP-loaded KRAS G12D (Homo sapiens, UniProt P01116, G12D). Nature of the test: KRAS G12D Probe Displacement Assay. The settings on record: KRAS G12D 0.5 nM, biotinylated probe 2 4 nM; Table 6 letters; read-out: KRAS G12D Probe Displacement Assay IC50 (class). It is filed as binding.

Bounds are passed on as bounds.

GDP-loaded KRAS G12D, sequence (P01116 1-188 isoform P01116-2 G12D): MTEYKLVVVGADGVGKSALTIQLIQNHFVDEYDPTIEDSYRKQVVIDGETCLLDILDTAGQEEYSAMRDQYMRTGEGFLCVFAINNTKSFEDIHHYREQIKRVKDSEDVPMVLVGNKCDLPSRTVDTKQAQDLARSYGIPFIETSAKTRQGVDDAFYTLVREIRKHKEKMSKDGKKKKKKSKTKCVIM

For the compound `COC1CC(Oc2nc(N3CC4CCC(C3)N4)c3cc(C(F)(F)F)c(-c4ccc(F)c5sc(N)nc45)c(F)c3n2)C1` (centres unmarked) [Example E167, 4-(4-(3,8-diazabicyclo[3.2.1]octan-3-yl)-8-fluoro-2-(3-methoxycyclobutoxy)-6-(trifluoromethyl)quinazolin-7-yl)-7-fluorobenzo[d]thiazol-2-amine], the IC50 – broadly, the concentration that inhibits the measured activity by half – is 0.05 to 0.1 µM.

With `N#Cc1c(N)sc2c(F)ccc(-c3c(C(F)(F)F)cc4c(N5CC6CCC(C5)N6)nc(OCC56COC(C5)C6)nc4c3F)c12` [Example E236, 4-(2-((2-oxabicyclo[2.1.1]hexan-4-yl)methoxy)-4-(3,8-diazabicyclo[3.2.1]octan-3-yl)-8-fluoro-6-(trifluoromethyl)quinazolin-7-yl)-2-amino-7-fluorobenzo [b]thiophene-3-carbonitrile], the 50% inhibitory concentration (IC50) is less than 0.05 µM.

As to `Cc1cc(N)nc(-c2c(Cl)cc3c(N4CC5CCC(C4)N5)nc(OCC4(CO)CCCC4)nc3c2F)c1C(F)(F)F` [Example E198, (1-(((7-(6-amino-4-methyl-3-(trifluoromethyl)pyridin-2-yl)-4-(3,8-diazabicyclo[3.2.1]octan-3-yl)-6-chloro-8-fluoroquinazolin-2-yl)oxy)methyl)cyclopentyl) methanol], the IC50 lay within 0.05 to 0.1 µM.

Consider `N#CC1(COc2nc(N3CC4CCC(C3)N4)c3cc(C(F)(F)F)c(-c4ccc(F)c5sc(N)nc45)c(F)c3n2)CCCCC1` [Example E157, 1-(((7-(2-amino-7-fluorobenzo[d]thiazol-4-yl)-4-(3,8-diazabicyclo [3.2.1]octan-3-yl)-8-fluoro-6-(trifluoromethyl)quinazolin-2-yl)oxy)methyl)cyclohexane-1-carbonitrile], for which the 50% inhibitory concentration (IC50) is less than 0.05 µM.

Regarding `Nc1nc2c(-c3c(C(F)(F)F)cc4c(N5CC6CCC(C5)N6)nc(OCC5COC(=O)N5)nc4c3F)ccc(F)c2s1` (centres unmarked) [Example E170, 4-(((7-(2-amino-7-fluorobenzo[d]thiazol-4-yl)-4-(3,8-diazabicyclo [3.2.1]octan-3-yl)-8-fluoro-6-(trifluoromethyl)quinazolin-2-yl)oxy)methyl)oxazolidin-2-one], the concentration for half-maximal inhibition (IC50) was less than 0.05 µM.

For the compound `CN1C[C@H](F)C[C@]1(C)COc1nc(N2C3CNCC2COC3)c2cc(C(F)(F)F)c(-c3ccc(F)c4sc(N)nc34)c(F)c2n1` [Example E122, 4-(4-(3-oxa-7,9-diazabicyclo[3.3.1]nonan-9-yl)-8-fluoro-2-(((2R,4R)-4-fluoro-1,2-dimethylpyrrolidin-2-yl)methoxy)-6-(trifluoromethyl)quinazolin-7-yl)-7-fluorobenzo[d]thiazol-2-amine], the IC50 was less than 0.05 µM.

`Cc1cc(N)nc(-c2c(Cl)cc3c(N4CC5CCC(C4)N5)nc(OCC4(C#N)CCCC4)nc3c2F)c1C(F)(F)F` [Example E199, 1-(((7-(6-amino-4-methyl-3-(trifluoromethyl)pyridin-2-yl)-4-(3,8-diazabicyclo[3.2.1]octan-3-yl)-6-chloro-8-fluoroquinazolin-2-yl)oxy)methyl)cyclopentane-1-carbonitrile]: the IC50 lay within 0.05 to 0.1 µM.

For `N#CC1(CCOc2nc(N3CC4CCC(C3)N4)c3cc(C(F)(F)F)c(-c4ccc(F)c5sc(N)nc45)c(F)c3n2)CC1` [Example E155], the IC50 was less than 0.05 µM.

In the case of `Nc1nc2c(-c3c(C(F)(F)F)cc4c(N5CC6CCC(C5)N6)nc(OCC5(O)CCOCC5)nc4c3F)ccc(F)c2s1` [Example E221, 4-(((7-(2-amino-7-fluorobenzo[d]thiazol-4-yl)-4-(3,8-diazabicyclo [3.2.1]octan-3-yl)-8-fluoro-6-(trifluoromethyl)quinazolin-2-yl)oxy)methyl)tetrahydro-2H-pyran-4-ol], the IC50 was less than 0.05 µM.

With `Cc1cc(N)c(C#N)c(-c2c(Cl)cc3c(N4CC5CCC(C4)N5)nc(OC[C@@]45CCCN4C[C@H](F)C5)nc3c2F)c1I` [Example E118, 2-(4-(3,8-diazabicyclo[3.2.1]octan-3-yl)-6-chloro-8-fluoro-2-(((2R,7aS)-2-fluorotetrahydro-1H-pyrrolizin-7a(5H)-yl)methoxy)quinazolin-7-yl)-6-amino-3-iodo-4-methylbenzonitrile], the IC50 was less than 0.05 µM.

Turning to `Cc1cc(N)nc(-c2c(Cl)cc3c(N4CC5CCC(C4)N5)nc(OCC4(C#N)CCOCC4)nc3c2F)c1C(F)(F)F` [Example E195, 4-(((7-(6-amino-4-methyl-3-(trifluoromethyl)pyridin-2-yl)-4-(3,8-diazabicyclo[3.2.1]octan-3-yl)-6-chloro-8-fluoroquinazolin-2-yl)oxy)methyl)tetrahydro-2H-pyran-4-carbonitrile], the IC50 is less than 0.05 µM.

Regarding `N#CC1(COc2nc(N3CC4CCC(C3)N4)c3cc(C(F)(F)F)c(-c4ccc(F)c5sc(N)nc45)c(F)c3n2)CCCC1` [Example E192, 1-(((7-(2-amino-7-fluorobenzo[d]thiazol-4-yl)-4-(3,8-diazabicyclo [3.2.1]octan-3-yl)-8-fluoro-6-(trifluoromethyl)quinazolin-2-yl)oxy)methyl)cyclopentane-1-carbonitrile], the IC50 is less than 0.05 µM.

For the compound `COC1(COc2nc(N3CC4CCC(C3)N4)c3cc(C(F)(F)F)c(-c4ccc(F)c5sc(N)nc45)c(F)c3n2)COC1` [Example E176, 4-(4-(3,8-diazabicyclo[3.2.1]octan-3-yl)-8-fluoro-2-((3-methoxyoxetan-3-yl)methoxy)-6-(trifluoromethyl)quinazolin-7-yl)-7-fluorobenzo[d] thiazol-2-amine], the IC50 is less than 0.05 µM.

`N#Cc1c(N)sc2c(F)ccc(-c3c(Cl)cc4c(N5CC6CCC(C5)N6)nc(OC[C@@]56CCCN5C[C@H](F)C6)nc4c3F)c12` [Example E106, 4-(4-(3,8-diazabicyclo[3.2.1]octan-3-yl)-6-chloro-8-fluoro-2-(((2R,7aS)-2-fluorotetrahydro-1H-pyrrolizin-7a(5H)-yl)methoxy)quinazolin-7-yl)-2-amino-7-fluorobenzo[b]thiophene-3-carbonitrile]: the IC50 is less than 0.05 µM.

For `Nc1nc2c(-c3c(C(F)(F)F)cc4c(N5CC6CCC(C5)N6)nc(OC5CCOCC5F)nc4c3F)ccc(F)c2s1` (centres unmarked) [Example E159, 4-(4-(3,8-diazabicyclo[3.2.1]octan-3-yl)-8-fluoro-2-((3-fluorotetra hydro-2H-pyran-4-yl)oxy)-6-(trifluoromethyl)quinazolin-7-yl)-7-fluorobenzo[d]thiazol-2-amine], the IC50 was less than 0.05 µM.

Take `Cc1cc(N)nc(-c2c(Cl)cc3c(N4CC5CCC(C4)N5)nc(OCC4(C)CCOCC4)nc3c2F)c1C(F)(F)F` [Example E202, 6-(4-(3,8-diazabicyclo[3.2.1]octan-3-yl)-6-chloro-8-fluoro-2-((4-methyltetrahydro-2H-pyran-4-yl)methoxy)quinazolin-7-yl)-4-methyl-5-(trifluoromethyl)pyridin-2-amine]: the 50% inhibitory concentration (IC50) was in the range of 0.05 to 0.1 µM.

For the compound `Nc1nc2c(-c3c(C(F)(F)F)cc4c(N5C6CNCC5COC6)nc(OCC56CC(F)CN5CC(F)C6)nc4c3F)ccc(F)c2s1` (centres unmarked) [Example E139, 4-(4-(3-oxa-7,9-diazabicyclo[3.3.1]nonan-9-yl)-2-((2,6-difluorotetrahydro-1H-pyrrolizin-7a(5H)-yl)methoxy)-8-fluoro-6-(trifluoromethyl)quinazolin-7-yl)-7-fluorobenzo[d]thiazol-2-amine], the half-inhibitory concentration (IC50) is less than 0.05 µM.

For the compound `COCCCNC1C[C@H]2CC[C@@H]1N2c1nc(OC[C@@]23CCCN2C[C@H](F)C3)nc2c(F)c(-c3ccc(F)c4sc(N)nc34)c(C(F)(F)F)cc12` (stereo partly drawn) [Example E97, 7-fluoro-4-(8-fluoro-2-(((2R,7aS)-2-fluorotetrahydro-1H-pyrrolizin-7a(5H)-yl)methoxy)-4-((1S,4R)-2-((3-methoxypropyl)amino)-7-azabicyclo [2.2.1]heptan-7-yl)-6-(trifluoromethyl)quinazolin-7-yl) benzo[d]thiazol-2-amine], the IC50 is less than 0.05 µM.

As for `Nc1nc2c(-c3c(C(F)(F)F)cc4c(N5CC6CCC(C5)N6)nc(OCC5(CO)CCC5)nc4c3F)ccc(F)c2s1` [Example E154, (1-(((7-(2-amino-7-fluorobenzo[d]thiazol-4-yl)-4-(3,8-diazabicyclo[3.2.1]octan-3-yl)-8-fluoro-6-(trifluoromethyl)quinazolin-2-yl)oxy)methyl)cyclobutyl) methanol], the 50% inhibitory concentration (IC50) is less than 0.05 µM.

Take `CC12CC(COc3nc(N4CC5CCC(C4)N5)c4cc(C(F)(F)F)c(-c5ccc(F)c6sc(N)c(C#N)c56)c(F)c4n3)(CO1)C2` [Example E235, 4-(4-(3,8-diazabicyclo[3.2.1]octan-3-yl)-8-fluoro-2-((1-methyl-2-oxabicyclo[2.1.1]hexan-4-yl)methoxy)-6-(trifluoromethyl)quinazolin-7-yl)-2-amino-7-fluoro benzo[b]thiophene-3-carbonitrile]: the IC50 was less than 0.05 µM.

Consider `Nc1nc2c(-c3c(C(F)(F)F)cc4c(N5C6CCC5CNC6)nc(OC[C@@]56CCCN5C[C@H](F)C6)nc4c3Cl)ccc(F)c2s1` [Example E101, 4-(4-(3,8-diazabicyclo[3.2.1]octan-8-yl)-8-chloro-2-(((2R,7aS)-2-fluorotetrahydro-1H-pyrrolizin-7a(5H)-yl)methoxy)-6-(trifluoromethyl)quinazolin-7-yl)-7-fluorobenzo[d]thiazol-2-amine], for which the IC50 was less than 0.05 µM.

For the compound `Cc1cc(N)nc(-c2c(Cl)cc3c(N4CC5CCC(C4)N5)nc(OCC4CS(=O)(=O)C4)nc3c2F)c1C(F)(F)F` [Example E228, 3-(((7-(6-amino-4-methyl-3-(trifluoromethyl)pyridin-2-yl)-4-(3,8-diazabicyclo[3.2.1]octan-3-yl)-6-chloro-8-fluoroquinazolin-2-yl)oxy)methyl)thietane 1,1-dioxide], the half-maximal inhibitory concentration (IC50) is less than 0.05 µM.

`Cc1cc(N)nc(-c2c(C3CC3)cc3c(N4CC5CCC(C4)N5)nc(OC[C@@]45CCCN4C[C@H](F)C5)nc3c2F)c1C(F)(F)F` [Example E129, 6-(4-(3,8-diazabicyclo[3.2.1]octan-3-yl)-6-cyclopropyl-8-fluoro-2-(((2R,7aS)-2-fluorotetrahydro-1H-pyrrolizin-7a(5H)-yl)methoxy)quinazolin-7-yl)-4-methyl-5-(trifluoromethyl)pyridin-2-amine]: the IC50 is less than 0.05 µM.
